Test results reported in US6864217B2, “Herbicidal compositions with substituted phenylsulfonylureas for controlling weeds in rice” (Hoechst Schering AgrEvo GmbH, priority 1998, dated 2005).
Counter-ions that a name gives are not always drawn.

Experiments:
[1] = tested on: Oryza sativa; assay: Table 10 greenhouse trial, treatment at the 1-2 leaf stage: rice damage; assay type: in vivo; conditions: in vivo
Method: (§1) Seeds or rhizome pieces of mono- and dicotyledonous weed plants are placed into sandy loam soil in plastic pots, covered with soil and grown in a greenhouse under good growth conditions (temperature, atmospheric humidity, water supply). Weeds which are encountered in the cultivation of rice are cultivated in pots in which the water level is up to 2 cm over the soil surface. Three weeks after sowing, the test plants are treated at the three-leaf stage. The active compound combinations according to the invention, formulated as wettable powders or emulsion concentrates, and, in parallel experiments, the correspondingly formulated individual active compounds are sprayed onto the green parts of the plants at different dosages using an amount of water of 300 to 600 l/ha (converted), and, after about 3 to 4 weeks of the test plants in the greenhouse under optimum growth conditions (temperature, atmospheric humidity, water supply), the effect of the preparations is evaluated visually in comparison to untreated controls. In the case of rice or weeds which are encountered in the cultivation of rice, the active compounds are also added directly to the water for irrigation (application analogous to the so-called granules application) or sprayed onto plants and added to the water for irrigation. The experiments were designed with several, up to five, repetitions. The herbicidal compositions according to the invention also have good herbicidal post-emergence activity against a broad spectrum of economically important weed grasses and broad-leaved weeds.
(§2) Greenhouse trial: Treatment at the 1-2 leaf stage, evaluation 20 days after the application.

[2] = tested on: Oryza sativa; assay: Table 4 field trial: rice damage
Method: (§4) The examples mentioned below were carried out in the greenhouse, and in some instances, in field trials.

[3] = tested on: Ipomoea hederacea; assay: Table 20 field trial, treatment at the 4-6 leaf stage: weed control; assay type: in vivo; conditions: 2.5 g of ai/ha, 28 days after application
Excerpt: Field trial: Treatment at the 4-6 leaf stage, evaluation 28 days after the application.

[4] = tested on: Echinochloa crusgalli; assay: Table 18 field trial, treatment at the 1-2 leaf stage: weed control; assay type: in vivo; conditions: 14 days after application
Excerpt: Field trial: Treatment at the 1-2 leaf stage, evaluation 14 days after the application.

[5] = tested on: Oryza sativa; assay: Table 9 greenhouse trial, treatment at the 1-2 leaf stage: rice damage; assay type: in vivo; conditions: 22 days after application
Method: as §1
Greenhouse trial: Treatment at the 1-2 leaf stage, evaluation 22 days after the application.

[6] = tested on: Oryza sativa; assay: Table 14 greenhouse trial, treatment at the 3-4 leaf stage: rice damage; assay type: in vivo; conditions: 21 days after application
Method: as §1
Greenhouse trial: Treatment at the 3-4 leaf stage, evaluation 21 days after the application.

[7] = tested on: Oryza sativa; assay: Table 2 field trial, treatment at the 1-2 leaf stage rice: rice damage; conditions: 28 days after application
Method: as §4

[8] = tested on: Cucumis dipsaceus; assay: Table 1: weed control by A1*), safener C3-1) and combination; assay type: in vivo
Method: as §4

[9] = tested on: Echinochloa crusgalli; assay: Table 17 field trial, treatment at the 2 leaf stage: weed control; assay type: in vivo; conditions: 14 days after application
Excerpt: Field trial: Treatment at the 2 leaf stage, evaluation 14 days after the application.

[10] = tested on: Oryza sativa; assay: Table 24 field trial, treatment by the pre-emergence method: rice damage; assay type: in vivo; conditions: field trial, pre-emergence method, 53 days after application
Excerpt: (§3) Field trial: Treatment by the pre-emergence method, evaluation 53 days after the application.

[11] = tested on: Oryza sativa; assay: Table 23 field trial, treatment: 4-6 leaf stage: rice damage; assay type: in vivo; conditions: 36 days after application
Excerpt: Field trial: Treatment: 4-6 leaf stage, evaluation 36 days after the application.

[12] = tested on: Oryza sativa; assay: Table 13 greenhouse trial, treatment at the 5-6 leaf stage: rice damage; assay type: in vivo; conditions: 20 days after application
Method: as §1
Greenhouse trial: Treatment at the 5-6 leaf stage, evaluation 20 days after the application.

[13] = tested on: Cyperus serotinus; assay: Table 21 field trial, treatment at the 2 leaf stage: weed control; assay type: in vivo; conditions: 2.5 g of ai/ha, 28 days after application
Excerpt: Field trial: Treatment at the 2 leaf stage, evaluation 28 days after the application.

[14] = tested on: Oryza sativa (paddy rice); assay: Table 1: damage to paddy rice; assay type: in vivo
Method: as §4

[15] = tested on: Echinochloa crusgalli; assay: Table 11 greenhouse trial, treatment at the 1-2 leaf stage: weed control; assay type: in vivo; conditions: 20 days after application
Method: as §1, §2

[16] = tested on: Oryza sativa; assay: Table 7 field trial, treatment at the 1-2 leaf stage: rice damage; assay type: in vivo; conditions: 2 g of ai/ha, 28 days after application
Method: as §4

[17] = tested on: Cyperus iria; assay: Table 24 field trial, treatment by the pre-emergence method: weed control; assay type: in vivo; conditions: 53 days after application
Excerpt: as §3

[18] = tested on: Scirpus juncoides; assay: Table 10 greenhouse trial, treatment at the 1-2 leaf stage: weed control; assay type: in vivo; conditions: 20 days after application
Method: as §1, §2

[19] = tested on: Oryza sativa; assay: Table 12 greenhouse trial, treatment at the 1-2 leaf stage: rice damage; assay type: in vivo; conditions: in vivo
Method: as §1, §2

[20] = tested on: Scirpus maritimus; assay: Table 15 greenhouse trial, treatment at the 2-3 leaf stage: weed control; assay type: in vivo; conditions: 20 days after application
Method: as §1

[21] = tested on: Oryza sativa; assay: Table 8 greenhouse trial, treatment at the 1-2 leaf stage: rice damage; assay type: in vivo; conditions: 22 days after application
Excerpt: as §1, with “Three weeks after sowing, the test plants are treated at the three-leaf stage.” left out

With `COC(=O)c1ccc(I)cc1S(=O)(=O)NC(=O)Nc1nc(C)nc(OC)n1` [A1*), Sodium salt of methyl 4-iodo-2-[3-(4-methoxy-6-methyl-1,3,5-triazin-2-yl)ureidosulfonyl]benzoate] the ORYSW % damage [1] was 10%, the ORYSW % damage ([2]; 1.25 g of ai/ha) was 0% and the ORYSW % damage ([2]; 2.5 g of ai/ha) was 0%. It also gave an ORYSW % damage ([2]; 5 g of ai/ha) of 1%, an IPOHE % control [3] of 30% and an ECHCG % control ([4]; 1 g of ai/ha) of 5%. It also gave an ECHCG % control ([4]; 2 g of ai/ha) of 25%, an ORYSW % damage ([5]; 1.5 g of ai/ha) of 10% and an ORYSW % damage ([5]; 3 g of ai/ha) of 10%. For the same molecule, the ORYSW % damage ([6]; 1.5 g of ai/ha) was 10%, the ORYSW % damage ([6]; 3 g of ai/ha) was 10% and the ORYSW % damage ([7]; 1.25 g of ai/ha) was 10%. The ORYSW % damage ([7]; 2.5 g of ai/ha) was 25%, the ORYSW % damage ([7]; 5 g of ai/ha) was 25% and the CUMDI % control ([8]; 1.25 g of ai/ha) was 60%. The CUMDI % control ([8]; 2.5 g of ai/ha) was 80%, the ECHCG % control ([9]; 1 g of ai/ha) was 5% and the ECHCG % control ([9]; 2 g of ai/ha) was 25%. The ECHCG % control ([9]; 4 g of ai/ha) was 45%, the ORYSW % damage ([10]; 2.5 g of ai/ha) was 0% and the ORYSW % damage ([10]; 5 g of ai/ha) was 0%. It also gave an ORYSW % damage ([11]; 0.62 g of ai/ha) of 3%, an ORYSW % damage ([11]; 1.25 g of ai/ha) of 8% and an ORYSW % damage ([11]; 2.5 g of ai/ha) of 12%. It also gave an ORYSW % damage ([12]; 1.5 g of ai/ha) of 10%, an ORYSW % damage ([12]; 3 g of ai/ha) of 10% and a CYPSE % control [13] of 25%. For the same molecule, the ORYSW % damage ([14]; 1.25 g of ai/ha) was 15%, the ORYSW % damage ([14]; 2.5 g of ai/ha) was 15% and the ECHCG % control ([15]; 1.5 g of ai/ha) was 40%. The ECHCG % control ([15]; 3 g of ai/ha) was 60%, the ORYSW % damage [16] was 0% and the CYPIR % control ([17]; 2.5 g of ai/ha) was 17%. For the same molecule, the CYPIR % control ([17]; 5 g of ai/ha) was 27%, the SCIJU % control ([18]; 1.5 g of ai/ha) was 40% and the SCIJU % control ([18]; 3 g of ai/ha) was 40%. The ORYSW % damage [19] was 10%, the SCIMA % control ([20]; 1.25 g of ai/ha) was 35% and the SCIMA % control ([20]; 2.5 g of ai/ha) was 40%. For the same molecule, the SCIMA % control ([20]; 5 g of ai/ha) was 45%, the ORYSW % damage ([21]; 1.5 g of ai/ha) was 10% and the ORYSW % damage ([21]; 3 g of ai/ha) was 10%.
